The values that follow are results of earlier work, collected in US11007501B2, “Reduced permeability microcapsules” (Trucapsol LLC, priority 2018, dated 2021).

Regarding Nonalactone, the “Octanol/water Partition Coefficient (logP)” value was 1.3.
For the substance Violiff, the “Octanol/water Partition Coefficient (logP)” value is given as 2.11.
